Laboratory results reported in PubChem BioAssay AID434987 (Southern Research Specialized Biocontainment Screening …, 2010).
Activity calls are given as the source filed them. The rule behind the calls is not given here.

Tested on: M. tuberculosis H37Rv growth inhibition with meropenem
Assay: dose response, H37Rv, with and without meropenem (AID 434987);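 note: growth over 7 days at 37 °C before Alamar Blue read on day 9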
[1] = M. tuberculosis H37Rv growth inhibition, measured here: IC50 without meropenem
[2] = M. tuberculosis H37Rv growth inhibition, measured here: IC90 without meropenem
[3] = measured here: IC90 with meropenem

CC1CCN(C(=S)NC(=O)c2ccccc2)CC1
IC50: 12 µM | IC50 [1]: 40.7 µM | IC90 [2]: 77.6 µM | IC90 [3]: 13.6 µM

O=C(CNc1ccccc1Cl)Nc1cc(S(=O)(=O)N2CCOCC2)ccc1Cl
IC50: > 100 µM (inactive) | IC50 [1]: > 100 µM | IC90 [2]: > 100 µM | IC90 [3]: > 100 µM

COc1ccccc1N1CCN(CC(=O)Nc2cc(F)ccc2C)CC1
IC50: 47 µM (inactive) | IC50 [1]: 58.6 µM | IC90 [2]: > 100 µM | IC90 [3]: 91 µM

COc1ccc(NC(=O)COC(=O)Cc2ccc(-c3ccccc3)cc2)c(OC)c1
IC50: > 100 µM (inactive) | IC50 [1]: > 100 µM | IC90 [2]: > 100 µM | IC90 [3]: > 100 µM

COc1ccc(C(=O)Nc2nc3ccc(OC)cc3s2)cc1
IC50: 21.2 µM | IC50 [1]: 65.1 µM | IC90 [2]: > 100 µM | IC90 [3]: > 100 µM

CC(C)C[C@H](NC(=O)c1nc[nH]c1C(=O)N1CCN(C(=O)OC(C)(C)C)CC1)C(=O)OCc1ccccc1
IC50: 48.8 µM (inactive) | IC50 [1]: 49.4 µM | IC90 [2]: 56.1 µM | IC90 [3]: 54.9 µM

CCOC(=O)c1nn(-c2ccc(Cl)cc2)cc1O
IC50: > 100 µM (inactive) | IC50 [1]: > 100 µM | IC90 [2]: > 100 µM | IC90 [3]: > 100 µM

O=C(Nc1ccc(Cl)cc1F)c1cccc2ccccc12
IC50: > 100 µM (inactive) | IC50 [1]: > 100 µM | IC90 [2]: > 100 µM | IC90 [3]: > 100 µM

Cc1ncc(CCl)c2c1OC(C)(C)OC2
IC50: 42.5 µM (inactive) | IC50 [1]: 89.2 µM | IC90 [2]: > 100 µM | IC90 [3]: > 100 µM

CN(C)S(=O)(=O)c1ccc(C(=O)/C=C/c2cccnc2)cc1
IC50: 5.92 µM (inactive) | IC50 [1]: 9.41 µM | IC90 [2]: 13.9 µM | IC90 [3]: 12.1 µM

C/C(=N\NC(=O)c1cccc(Cl)c1)c1cccc(NC(=O)C(C)C)c1
IC50: > 100 µM (inactive) | IC50 [1]: > 100 µM | IC90 [2]: > 100 µM | IC90 [3]: > 100 µM

COc1ccc2nc(SCc3cccc(C)c3)nc(C)c2c1
IC50: > 100 µM (inactive) | IC50 [1]: > 100 µM | IC90 [2]: > 100 µM | IC90 [3]: > 100 µM

CCOc1ccc(-c2nc(-c3ccccc3C)no2)cc1
IC50: > 100 µM (inactive) | IC50 [1]: > 100 µM | IC90 [2]: > 100 µM | IC90 [3]: > 100 µM

CN1CCN(S(=O)(=O)c2ccc(NC(=O)c3ccc(Br)s3)cc2)CC1
IC50: 74.7 µM (inactive) | IC50 [1]: > 100 µM | IC90 [2]: > 100 µM | IC90 [3]: > 100 µM

Cc1noc(NS(=O)(=O)c2ccc(N/C=C\C(=O)c3ccc4c(c3)OCO4)cc2)c1C
IC50: 34.2 µM | IC50 [1]: 91.5 µM | IC90 [2]: > 100 µM | IC90 [3]: 86 µM

Cc1ccc(N=Cc2c(O)ccc3ccccc23)cc1F
IC50: > 100 µM (inactive) | IC50 [1]: > 100 µM | IC90 [2]: > 100 µM | IC90 [3]: > 100 µM

COc1nc(-c2ccccc2)ccc1-c1noc(-c2cccnc2)n1
IC50: > 100 µM (inactive) | IC50 [1]: > 100 µM | IC90 [2]: > 100 µM | IC90 [3]: > 100 µM

O=C(NN1C(=O)c2cc(Br)ccc2NC1c1ccccc1Cl)c1ccncc1 (stereo not drawn)
IC50: 12.5 µM | IC50 [1]: 35 µM | IC90 [2]: 50.7 µM | IC90 [3]: 13.7 µM

O=C(CNC(=O)c1ccc(Br)cc1)NCC(=O)OCc1ccc(Cl)cc1
IC50: 12.4 µM | IC50 [1]: 56.9 µM | IC90 [2]: > 100 µM | IC90 [3]: > 100 µM

Cc1ccc(CNC(=O)c2cn(C)c3ccc(S(=O)(=O)N4CCOCC4)cc3c2=O)cc1
IC50: > 50 µM (inactive) | IC50 [1]: > 100 µM | IC90 [2]: > 100 µM | IC90 [3]: > 50 µM

COc1ccc(Cn2c(=O)[nH]c3cc(C(=O)N4CCN(c5ccccc5F)CC4)ccc3c2=O)cc1
IC50: > 100 µM (inactive) | IC50 [1]: > 100 µM | IC90 [2]: > 100 µM | IC90 [3]: > 100 µM

NC(=S)N/N=C/c1ccc(/C=N/NC(N)=S)cc1
IC50: 2.5 µM | IC50 [1]: > 100 µM | IC90 [2]: > 100 µM | IC90 [3]: > 100 µM

CCCc1cc(C(=O)Nc2ccc(C(C)=O)cc2)no1
IC50: 11.7 µM (inactive) | IC50 [1]: 24.4 µM | IC90 [2]: > 100 µM | IC90 [3]: 48.8 µM

Cc1c(-c2ccccc2)cnc2c(C)cccc12
IC50: 59.9 µM (inactive) | IC50 [1]: 95.6 µM | IC90 [2]: > 100 µM | IC90 [3]: > 100 µM

O=C(OCC(=O)c1c[nH]c2ccccc12)c1cccc([N+](=O)[O-])c1
IC50: > 100 µM (inactive) | IC50 [1]: > 100 µM | IC90 [2]: > 100 µM | IC90 [3]: > 100 µM

O=C(CC12CC3CC(CC(C3)C1)C2)NCc1ccc(F)cc1
IC50: 7.43 µM | IC50 [1]: > 100 µM | IC90 [2]: > 100 µM | IC90 [3]: 10.4 µM

CCCCN(CCCC)C(=S)N/N=C/c1c(C)[nH]n(-c2ccccc2)c1=O
IC50: > 100 µM (inactive) | IC50 [1]: > 100 µM | IC90 [2]: > 100 µM | IC90 [3]: > 100 µM

O=C(N/N=C/C(Br)=C\c1ccccc1)c1ccc2nc[nH]c2c1
IC50: 30.4 µM | IC50 [1]: > 100 µM | IC90 [2]: > 100 µM | IC90 [3]: > 100 µM

S=c1[nH]cnc2scc(-c3ccc(Br)cc3)c12
IC50: 28.8 µM | IC50 [1]: 98.8 µM | IC90 [2]: > 100 µM | IC90 [3]: > 100 µM

CSc1nc(-c2ccc(Cl)cc2)nn1S(=O)(=O)c1ccccc1
IC50: 9.85 µM | IC50 [1]: > 100 µM | IC90 [2]: > 100 µM | IC90 [3]: > 100 µM

O=C(Cn1cnc2sc3c(c2c1=O)CCCC3)NCC(=O)Nc1ccccc1F
IC50: 88.3 µM (inactive) | IC50 [1]: > 100 µM | IC90 [2]: > 100 µM | IC90 [3]: 95.5 µM

COc1cc(NC(=O)c2ccc(Cl)cc2)c(OC)cc1NC(=O)CN1CCOCC1
IC50: > 100 µM (inactive) | IC50 [1]: > 100 µM | IC90 [2]: > 100 µM | IC90 [3]: > 100 µM

CN(/N=C/c1ccncc1)c1cnc2ccccc2n1
IC50: 59.8 µM (inactive) | IC50 [1]: > 100 µM | IC90 [2]: > 100 µM | IC90 [3]: > 100 µM

COc1cc(NC(=O)c2ccc(CNc3c(N4CCCC4)c(=O)c3=O)cc2)cc(OC)c1OC
IC50: 23.9 µM | IC50 [1]: > 100 µM | IC90 [2]: > 100 µM | IC90 [3]: > 100 µM

O=c1c2ccccc2c(-c2ccccc2)nn1-c1ccccc1
IC50: 19.7 µM | IC50 [1]: > 100 µM | IC90 [2]: > 100 µM | IC90 [3]: > 100 µM

O=C(Nc1ccc(Br)cc1)c1cccnc1N1CCCCC1
IC50: > 100 µM (inactive) | IC50 [1]: > 100 µM | IC90 [2]: > 100 µM | IC90 [3]: > 100 µM

CCc1sc2nc(SCC(=O)Nc3cc(C)on3)n(-c3cccc(OC)c3)c(=O)c2c1C
IC50: > 100 µM (inactive) | IC50 [1]: > 100 µM | IC90 [2]: > 100 µM | IC90 [3]: > 100 µM

Cc1cccnc1NC(=O)c1c(O)c2cccc3c2n(c1=O)CCC3
IC50: 94.4 µM (inactive) | IC50 [1]: > 100 µM | IC90 [2]: > 100 µM | IC90 [3]: > 100 µM

NS(=O)(=O)c1cccnc1Nc1c(Cl)cccc1Cl
IC50: > 100 µM (inactive) | IC50 [1]: > 100 µM | IC90 [2]: > 100 µM | IC90 [3]: > 100 µM

Clc1ccc(Cn2cc(/C=N/n3cnnc3)c3ccccc32)cc1
IC50: 46.9 µM (inactive) | IC50 [1]: 49 µM | IC90 [2]: > 50 µM | IC90 [3]: > 100 µM

Cc1onc(-c2ccccc2)c1C(=O)Nc1ccc(-c2nnc3n2CCCCC3)cc1
IC50: 23.8 µM (inactive) | IC50 [1]: 29.3 µM | IC90 [2]: 71.2 µM | IC90 [3]: 38.6 µM

CCOC(=O)c1c(NC(=O)COC(=O)c2ncc(Cl)c(Cl)c2Cl)sc(C(=O)N(C)C)c1C
IC50: 24.8 µM (inactive) | IC50 [1]: 47.3 µM | IC90 [2]: 53.4 µM | IC90 [3]: 27.7 µM
